Assay results taken from patent US8008260B2, “Methods of protecting against apoptosis using lipopeptides” (Cleveland Clinic Foundation, priority 2005, dated 2011).
Values joined by “and” are separate entries in the source; they are usually repeats but may differ in a detail not shown here. Identical values can stand only once. Peptide text beside a SMILES is read from it. * marks the point of attachment. Propyl(2R-PamO,3-PamO) = CCCCCCCCCCCCCCCC(=O)OC[C@H](C*)OC(=O)CCCCCCCCCCCCCCC

Tested on: ICR mice
Assay: Radioprotection against total body gamma irradiation (TBI), 30-day survival
Assay type: in vivo
Details: for mice rescued (30-day survival): one experiment
Excerpt: CBLB601, a R-Pam2-lipopeptide with the peptide moiety consisting of C-SKKKK (SEQ ID NO: 8), was selected for more detailed characterization as a radioprotector based upon its ability to activate NF-κB and preliminary in vivo data on radioprotection in NIH-SWISS mice (see Example 2). The objectives of this study were to determine the optimal dose, route of administration, and time of administration of CBLB601 to serve as a protector. ICR female mice of 10-15 weeks of age were used, with 10-15 animals per group or condition.
The optimal intraperitoneal administration schedule of CBLB601 was determined by injecting the compound at different times prior to irradiation. […] Therefore, all of the optimization experiments were performed with 10 Gy of total body irradiation (TBI). A dose of 3 μg of BCLB601/mouse (1/10 NOAEL) was chosen as the starting dose. Thus, 3 μg of CBLB601 was injected i.p. into ICR mice at 0.5 h, 1 h, 6 h, and 24 h or 1 h, 24 h, 48 h, 72 h, 96 h prior to 10 Gy of TBI (as described in Example 1). […] Injection of CBLB601 24 hrs before irradiation clearly yielded the best radioprotection (90-100% 30-day survival). When the compound was administered 48 hrs before irradiation, the radioprotection was ˜30%. Administration of CBLB601 at 1 hr prior to irradiation produced inconsistent results ranging from 80% protection in one experiment (FIG. 5B) to almost no protection (20%) in another experiment (FIG. 5A).
To determine the optimal radioprotective dose of CBLB601, the timing of injection and level of irradiation were kept constant, while the dose of CBLB601 was varied. ICR mice were injected i.p. with 1, 3, 10, 20, or 30 μg of CBLB601/mouse or 0.1, 0.3, 1, 3, 10, or […] 24 hrs prior to irradiation (10 Gy of TBI), and their survival was monitored for 30 days. The best protective dose was 3 μg/mouse, which supported a survival of 100% (FIGS. 6 A and B). […] Thus, the optimal protective dose of CBLB601 was determined to be 3 μg/mouse.
To determine the level of radiation that was protected by CBLB601, radioprotectant-treated and control mice were exposed to increasing levels of TBI. Groups of ICR mice were injected i.p. with either 3 μg CBLB601/mouse or PBS, and then 24 h later they received 10, 11, 12, 13, 14, and 15 Gy doses of TBI. Survival was recorded over 30 days. […] All of the mice irradiated with 10-11 Gy of TBI died between days 12-14 post irradiation, which was typical for death due to hematopoietic failure. All of the mice that received 14-15 Gy of TBI died between days 7-9 post irradiation, which was typical for mortality due to radiation-induced intestinal damage. Mice that were irradiated with 12-13 Gy of TBI died at intermediate times, which was typical for a mixed etiology of radiation-induced mortality. […] To reach a statistically significant 10% difference between control and CBLB601-treated mice, experimental groups of at least 50 mice must be used. Although CBLB601 rescued 100% of mice from 10 Gy of TBI, its protection at 11 Gy of TBI was only 20%. […] This may be indicative of a combined toxicity of the drug and the irradiation.
CBLB601 was administered intramuscularly to determine the optimal route of administration of this compound (especially since this would be the preferred route of administration for humans). […] In another experiment, increasing doses of CBLB601 administered i.m. were tested against 10, 11, and 12 Gy doses of […] (FIG. 9). […] A summary of the dose-dependency of the radioprotection of […] administered i.p. or i.m. 24 h prior to 10 Gy of TBI is shown in FIG. 10.
The optimal schedule of intramuscular administration of CBLB601 was determined by varying the time between drug delivery and irradiation. ICR mice were injected i.m. with 3 μg of CBLB601/mouse 24 h, 6 h, 3 h, and 1 h prior to TBI and +1 h, +3 h after TBI (FIG. 12A), as well as 48 h, 36 h, 24 h, 12 h, and 6 h prior to TBI (FIG. 12B). […]

[1] = 10 μg/mouse i.p. 24 hrs before 10 Gy TBI

## CCCCCCCCCCCCCCCC(=O)OC[C@H](CSC[C@H](N)C(=O)N[C@@H](CO)C(=O)N[C@@H](CCCCN)C(=O)N[C@@H](CCCCN)C(=O)N[C@@H](CCCCN)C(=O)N[C@@H](CCCCN)C(=O)O)OC(=O)CCCCCCCCCCCCCCC [CBLB601, R-PAM2C-SKKKK] (H-C(Propyl(2R-PamO,3-PamO))SKKKK-OH)
1 μg/mouse i.p. 24 hrs before 10 Gy TBI
  mice rescued (30-day survival): 90%
3 μg/mouse i.m. after (1 h and 3 h) 10 Gy TBI
  protective effect: no protective effect
3 μg/mouse i.m., 10 Gy TBI
  optimal time for intramuscular delivery prior to TBI: 24 h
3 μg/mouse i.p. 0.5 h before 10 Gy TBI
  radioprotection (30-day survival): 10%
3 μg/mouse i.p. 6 h before 10 Gy TBI
  radioprotection (30-day survival): 20%
3 μg/mouse i.p. 24 h before 11, 12 and 13 Gy
  kinetics of death versus PBS controls: died with an accelerated kinetics
3 μg/mouse i.p. 24 h before 11 Gy TBI
  protection (30-day survival): 20%
3 μg/mouse i.p. 24 h before TBI higher than 11 Gy (12-15 Gy)
  protection from irradiation: no protection
3 μg/mouse i.p. 24 hrs before 10 Gy TBI
  30-day survival: 90-100% and 100%
3 μg/mouse i.p. 48 hrs before 10 Gy TBI
  radioprotection (30-day survival): ~30%
3 μg/mouse i.p. 72 h before 10 Gy TBI
  radioprotection: No radioprotection
3 μg/mouse i.p. 96 h before 10 Gy TBI
  radioprotection: No radioprotection
10 μg/mouse i.m. 24 hr before 10 Gy TBI
  combined toxicity with irradiation: no sign of combined toxicity
[1]
  combined toxicity with irradiation: Some signs of this combined toxicity were detectable
  mice rescued (30-day survival): 90%
20 μg/mouse i.p. 24 hrs before 10 Gy TBI
  mortality in combination with irradiation versus PBS: accelerated mortality
30 μg/mouse i.p. 24 hrs before 10 Gy TBI
  mortality in combination with irradiation versus PBS: accelerated mortality
1, 3 or 10 μg/mouse i.m. 24 hr before 10 Gy TBI
  radioprotection: imparted radioprotection
10, 30 μg i.m. prior to 10 Gy TBI
  mortality shift at higher doses: non-statistically significant shift to increased mortality
10 and 30 μg/mouse i.m. 1 h after 10 Gy TBI
  combined toxicity with irradiation: increased levels of combined toxicity
i.m. administration
  therapeutic index (toxic dose/effective dose): 10-30
i.m. and i.p., 24 h prior to 10 Gy TBI
  optimal dose: 3 μg/mouse
i.m. delivery, 24 h prior to 10 Gy TBI
  effective dose per body weight: 60 to 115 µg/kg
i.p.
  radioprotective dose relative to NOAEL (fold lower): 10-30 fold
i.p. 24 hrs before 10 Gy TBI
  optimal protective dose: 3 μg/mouse
i.p. administration
  therapeutic index (toxic dose/effective dose): 3-10
i.p. delivery, 24 h prior to 10 Gy TBI
  effective dose per body weight: 90 to 110 µg/kg
Summary of Example 5
  therapeutic index: 3
